Assay results from PubChem BioAssay (NCI).
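GI50: concentration for 50% inhibition of growth. Definition used: TGI = concentration required for complete inhibition of growth.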

What was measured:
Assay in all cases: NCI tumour cell line growth inhibition, 384-well format
KM12 colon = test system: KM12 colon
UO-31 renal = test system: UO-31 renal
NCI-H522 lung = test system: NCI-H522 lung
SK-MEL-5 melanoma = test system: SK-MEL-5 melanoma
NCI-H226 lung = test system: NCI-H226 lung
M14 melanoma = test system: M14 melanoma
MALME-3M melanoma = test system: MALME-3M melanoma
EKVX NSCLC = test system: EKVX NSCLC
U251 glioblastoma = test system: U251 glioblastoma
SK-MEL-28 melanoma = test system: SK-MEL-28 melanoma
SR leukemia = test system: SR leukemia
RPMI-8226 leukemia = test system: RPMI-8226 leukemia
MDA-MB-468 breast = test system: MDA-MB-468 breast
HT29 colon = test system: HT29 colon
786-0 renal = test system: 786-0 renal
SF-268 CNS = test system: SF-268 CNS
NCI-H322M lung = test system: NCI-H322M lung
SK-OV-3 ovarian = test system: SK-OV-3 ovarian
HOP-62 NSCLC = test system: HOP-62 NSCLC
SF-295 CNS = test system: SF-295 CNS
HCC-2998 colon = test system: HCC-2998 colon
TK-10 renal = test system: TK-10 renal
NCI-H23 lung = test system: NCI-H23 lung
A549 NSCLC = test system: A549 NSCLC
HCT-15 colon = test system: HCT-15 colon
OVCAR-3 ovarian = test system: OVCAR-3 ovarian
OVCAR-4 ovarian = test system: OVCAR-4 ovarian
HL-60(TB) leukemia = test system: HL-60(TB) leukemia
MDA-MB-435 melanoma = test system: MDA-MB-435 melanoma

CCN1C(=O)CNc2ncc(-c3ccc(-c4ncn[nH]4)nc3C)nc21
GI50 (KM12 colon): 28 nM
TGI (KM12 colon): 1420 nM
GI50 (UO-31 renal): 17.9 nM
TGI (UO-31 renal): 91 nM
GI50 (NCI-H522 lung): 14 nM
TGI (NCI-H522 lung): 134 nM
GI50 (SK-MEL-5 melanoma): < 10 nM
TGI (SK-MEL-5 melanoma): 39.9 nM
GI50 (NCI-H226 lung): 18.3 nM
TGI (NCI-H226 lung): 69.6 nM
GI50 (M14 melanoma): 18.7 nM
TGI (M14 melanoma): 420 nM
GI50 (MALME-3M melanoma): < 10 nM
TGI (MALME-3M melanoma): 41 nM
GI50 (EKVX NSCLC): 19.1 nM
TGI (EKVX NSCLC): 115 nM
GI50 (U251 glioblastoma): 38.5 nM
TGI (U251 glioblastoma): 217 nM
GI50 (SK-MEL-28 melanoma): 23.5 nM
TGI (SK-MEL-28 melanoma): 174 nM
GI50 (SR leukemia): 11.1 nM
TGI (SR leukemia): 24.9 nM
GI50 (RPMI-8226 leukemia): < 10 nM
TGI (RPMI-8226 leukemia): 12.3 nM
GI50 (MDA-MB-468 breast): 16 nM
TGI (MDA-MB-468 breast): 75.1 nM
GI50 (HT29 colon): 42.7 nM
TGI (HT29 colon): 1740 nM
GI50 (786-0 renal): 46.2 nM
TGI (786-0 renal): 375 nM
GI50 (SF-268 CNS): 18.6 nM
TGI (SF-268 CNS): 52.6 nM
GI50 (NCI-H322M lung): 27.7 nM
TGI (NCI-H322M lung): 507 nM
GI50 (SK-OV-3 ovarian): 21.7 nM
TGI (SK-OV-3 ovarian): 184 nM
GI50 (HOP-62 NSCLC): 16.8 nM
TGI (HOP-62 NSCLC): 49 nM
GI50 (SF-295 CNS): < 10 nM
TGI (SF-295 CNS): 32.8 nM
GI50 (HCC-2998 colon): 52.6 nM
TGI (HCC-2998 colon): 285 nM
GI50 (TK-10 renal): 23.4 nM
TGI (TK-10 renal): 143 nM
GI50 (NCI-H23 lung): 18.4 nM
TGI (NCI-H23 lung): 52.4 nM
GI50 (A549 NSCLC): 27.5 nM
TGI (A549 NSCLC): 181 nM
GI50 (HCT-15 colon): 32 nM
TGI (HCT-15 colon): 1040 nM
GI50 (OVCAR-3 ovarian): 29.8 nM
TGI (OVCAR-3 ovarian): 227 nM
GI50 (OVCAR-4 ovarian): 15.4 nM
TGI (OVCAR-4 ovarian): 178 nM
GI50 (HL-60(TB) leukemia): 25.9 nM
TGI (HL-60(TB) leukemia): 59.8 nM
GI50 (MDA-MB-435 melanoma): 36.3 nM
TGI (MDA-MB-435 melanoma): 284 nM
